According to US8053478B1, “Antimicrobial diaryl iodonium compositions and method” (Cornell Development Group, LLC, priority 2007, dated 2011):

Assays:
mice = conditions: cited from earlier work
human epithelial cells = assay: tests of toxicity on human epithelial cells; format: cell-based; conditions: approximate levels of 0.25 millimole concentrations; compared with controls
E. Coli = assay: challenging the growth of E. Coli with measurement of optical density of media; format: cell-based; conditions: same optical density reduction; comparator 4-chlorophenyl-2-thienyliodonium bromide
Description: In an experiment challenging the growth of E. Coli with measurement of optical density of media, the present iodonium composition, 3,5-dimethyl 4-chlorophenyl 2-thienyl iodonium bromide, suppressed the optical density of the E. Coli media at one tenth the concentration needed to accomplish the same optical density reduction utilizing 4-chlorophenyl-2-thienyliodonium bromide. Optical density of the media is a semi-quantitative measure of the presence of growing bacteria. Reduced density indicates the test compounds are retarding bacterial growth. Thus, 3,5-dimethyl 4-chlorophenyl 2-thienyl iodonium bromide, which is non-toxic to mammals, has greater antimicrobial activity than 4-chlorophenyl-2-thienyliodonium bromide.

[1] = system: several strains of Staphylococcus aurelius, including Methicillin-resistant Staphylococcus aureus isolates; assay: MIC50 on Staphylococcus strains including Methicillin-resistant Staphylococcus aureus isolates; format: cell-based; conditions: same bacteria strains, incl. MRSA isolates; comparator 4-chlorophenyl 2-thienyl iodonium chloride

Row | Compound | oral median lethal dose (LD50) (mice) | toxicity on human epithelial cells (human epithelial cells) | concentration needed to suppress optical density of E. Coli media, as fraction of that needed with 4-chlorophenyl-2-thienyliodonium bromide (E. Coli) | MIC50 as fraction of the MIC50 for 4-chlorophenyl 2-thienyl iodonium chloride [1]
1 | Clc1ccc([I+]c2cccs2)cc1.[Cl-] [4-chlorophenyl-2-thienyliodonium chloride] | greater than 4000 mg/kg |  |  | 
2 | Cc1cc([I+]c2cccs2)cc(C)c1Cl.[Br-] [3,5-dimethyl 4-chlorophenyl 2-thienyl iodonium bromide] |  | lack of toxicity similar to that of controls | one tenth | one fifth
3 | Clc1ccc([I+]c2cccs2)cc1.[Br-] [4-chlorophenyl-2-thienyliodonium bromide, reference compound] |  | lack of toxicity similar to that of controls |  | 
